Source: patent US10799507B2, “5-(7H-pyrrolo[2,3-d]pyrimidin-4-yl)-5-azaspiro[2.5]octane-8-carboxylic acid derivatives as novel JAK kinase inhibitors” (LEO Pharma A/S, priority 2017, dated 2020)

Columns and labels:
JAK1 = JAK1 (Homo sapiens (Human), UniProt P23458); experiment: JAK kinase assay (HTRF), JAK1; format: biochemical; settings: catalytic domain, ATP at Km (7 μM)
Procedure, shortened: (§1)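 Catalytic-domain human JAK1 (GST-tagged, aa 850-1154) or His-tagged JAK2, baculovirus-expressed, phosphorylated 1 µM biotinylated TK peptide at Km ATP (JAK1 7 µM, 10 mM MgCl2, 50 nM SEB; JAK2 4 µM, 5 mM MgCl2) in pH 7.0 Hepes, 20-30 min RT. EDTA stop; overnight streptavidin-XL665/cryptate HTRF read.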

JAK2 = JAK2 (Homo sapiens (Human), UniProt O60674); experiment: JAK kinase assay (HTRF), JAK2; format: biochemical; settings: catalytic domain, ATP at Km (4 μM)
Chain of JAK2 (O60674 849-1124): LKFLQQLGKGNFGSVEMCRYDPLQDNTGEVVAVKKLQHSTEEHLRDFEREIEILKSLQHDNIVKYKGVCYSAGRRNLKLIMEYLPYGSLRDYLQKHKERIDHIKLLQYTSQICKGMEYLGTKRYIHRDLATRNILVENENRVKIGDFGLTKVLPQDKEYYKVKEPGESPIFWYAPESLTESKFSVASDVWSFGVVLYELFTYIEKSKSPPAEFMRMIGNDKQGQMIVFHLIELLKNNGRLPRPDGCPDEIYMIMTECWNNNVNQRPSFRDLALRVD
Procedure, shortened: as §1

JAK3 = JAK3 (Homo sapiens (Human), UniProt P52333); experiment: JAK kinase assay (HTRF), JAK3; format: biochemical; settings: catalytic domain, ATP at Km (2 μM)
Chain of JAK3 (P52333 822-1111): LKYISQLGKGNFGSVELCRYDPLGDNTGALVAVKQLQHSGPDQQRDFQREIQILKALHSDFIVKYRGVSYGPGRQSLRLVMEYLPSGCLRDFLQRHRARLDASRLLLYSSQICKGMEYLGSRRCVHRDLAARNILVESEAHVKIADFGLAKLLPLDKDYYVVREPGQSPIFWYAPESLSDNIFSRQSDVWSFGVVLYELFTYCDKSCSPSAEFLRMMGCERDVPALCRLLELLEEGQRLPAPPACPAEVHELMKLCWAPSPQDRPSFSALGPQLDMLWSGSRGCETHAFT
Procedure, shortened: (§2)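 HTRF read-out of biotinylated TK peptide phosphorylation (1 μM) after a 20-30 min RT reaction in pH 7.0 Hepes buffer with 5 mM MgCl2 and 0.75% DMSO. JAK3 (His-tagged catalytic domain) used 2 μM ATP; TYK2 (GST-tagged, aa 871-1187) used 13 μM ATP plus 50 nM SEB, each at ATP Km.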

TYK2 = TYK2 (Homo sapiens (Human), UniProt P29597); experiment: JAK kinase assay (HTRF), TYK2; format: biochemical; settings: catalytic domain, ATP at Km (13 μM)
Chain of TYK2 (P29597 871-1187): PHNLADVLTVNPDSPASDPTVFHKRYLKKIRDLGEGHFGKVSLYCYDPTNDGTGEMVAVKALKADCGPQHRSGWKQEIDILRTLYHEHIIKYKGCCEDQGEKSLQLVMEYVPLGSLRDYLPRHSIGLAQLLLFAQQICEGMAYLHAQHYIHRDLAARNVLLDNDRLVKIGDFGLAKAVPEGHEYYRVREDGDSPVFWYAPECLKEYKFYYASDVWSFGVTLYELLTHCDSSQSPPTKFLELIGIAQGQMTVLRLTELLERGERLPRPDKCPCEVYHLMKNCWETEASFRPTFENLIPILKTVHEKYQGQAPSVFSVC
Procedure, shortened: as §2

[1] = in vitro metabolic stability in human liver microsomes; format: in vitro ADME; settings: human, liver microsomes, 0.5 μM compound, 0.5 mg/mL microsomes, NADPH, 40 min, 37° C.; read-out: Human liver microsome Clapp (apparent intrinsic clearance)
Procedure: To assess the in vitro metabolic stability, the compounds (0.5 μM) were incubated in duplicates with human liver microsomes (0.5 mg/mL) in phosphate buffer and NADPH, in 96-well plates for 40 min (37° C.), using a liquid handling robot (Hamilton Microlab Star). Sample aliquots were taken at 0, 5, 10, 20 and 40 min, and dispensed into cold acetonitrile, in order to stop the reactions. The plates were centrifuged for 30 minutes before the samples were analyzed using liquid chromatography coupled to a time-of-flight mass spectrometer (AB Sciex API5600). The compound depletion over time was used to estimate the elimination rate constant, from which the apparent intrinsic clearance, Clapp, was calculated and the values are listed in Table 2.

Chain of JAK1 (P23458 850-1154): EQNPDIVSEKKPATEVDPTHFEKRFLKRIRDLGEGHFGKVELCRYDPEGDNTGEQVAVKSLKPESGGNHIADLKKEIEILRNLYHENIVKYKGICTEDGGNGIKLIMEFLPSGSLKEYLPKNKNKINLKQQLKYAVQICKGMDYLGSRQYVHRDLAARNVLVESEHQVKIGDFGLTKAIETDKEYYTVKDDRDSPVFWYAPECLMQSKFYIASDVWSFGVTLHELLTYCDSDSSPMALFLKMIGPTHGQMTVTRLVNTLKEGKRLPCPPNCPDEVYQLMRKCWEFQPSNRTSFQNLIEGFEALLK

Row | Structure (SMILES) | EC50 (JAK1) [nM] | EC50 (JAK2) [nM] | EC50 (JAK3) [nM] | EC50 (TYK2) [nM] | CLint scaled at 0.5 μM [1] [mL/min/kg]
1 | C[C@H](NC(=O)[C@H]1CCN(c2ncnc3[nH]ccc23)CC12CC2)c1ccc(C#N)c(F)c1 [Example 14, (8S)-N-[(1S)-1-(4-cyano-3-fluoro-phenyl)ethyl]-5-(7H-pyrrolo[2,3-d]pyrimidin-4-yl)-5-azaspiro[2.5]octane-8-carboxamide] | 0.9 | 2.2 | 6.5 | 26.8 | > 200
2 | C[C@@](CO)(NC(=O)[C@H]1CCN(c2ncnc3[nH]ccc23)CC12CC2)c1ccc(C#N)cc1 [Example 28, (8S)-N-[(1R)-1-(4-cyanophenyl)-2-hydroxy-1-methyl-ethyl]-5-(7H-pyrrolo[2,3-d]pyrimidin-4-yl)-5-azaspiro[2.5]octane-8-carboxamide] | 1.4 | 5.5 | 9.8 | 55.8 | 132
3 | N#Cc1ccc(CNC(=O)[C@H]2CCN(c3ncnc4[nH]ccc34)CC23CC3)c(F)c1 [Example 31, (8S)-N-[(4-cyano-2-fluoro-phenyl)methyl]-5-(7H-pyrrolo[2,3-d]pyrimidin-4-yl)-5-azaspiro[2.5]octane-8-carboxamide] | 1.4 | 6.4 | 15.6 | 63.7 | 166
4 | Cc1cc([C@H](CO)NC(=O)[C@H]2CCN(c3ncnc4[nH]ccc34)CC23CC3)ccc1C#N [Example 54, (8S)-N-[(1R)-1-(4-cyano-3-methyl-phenyl)-2-hydroxy-ethyl]-5-(7H-pyrrolo[2,3-d]pyrimidin-4-yl)-5-azaspiro[2.5]octane-8-carboxamide] | 3.6 | 13.5 | 33 | 135 | 142
5 | Cc1cc([C@@H](O)CNC(=O)[C@H]2CCN(c3ncnc4[nH]ccc34)CC23CC3)ncc1F (single isomer, unassigned) [Example 110] | 11.1 | 26.3 | 75.3 | 188 | 195
6 | Cc1cc([C@H](O)[C@H](C)NC(=O)[C@H]2CCN(c3ncnc4[nH]ccc34)CC23CC3)ccc1F [Example 40, (8S)-N-[(1S,2S)-2-(4-fluoro-3-methyl-phenyl)-2-hydroxy-1-methyl-ethyl]-5-(7H-pyrrolo[2,3-d]pyrimidin-4-yl)-5-azaspiro[2.5]octane-8-carboxamide] | 2.4 | 8.3 | 39.5 | 40.6 | > 200
7 | O=C(NCC1(O)CCC1)[C@H]1CCN(c2ncnc3[nH]ccc23)CC12CC2 [Example 68, (8S)-N-[(1-hydroxycyclobutyl)methyl]-5-(7H-pyrrolo[2,3-d]pyrimidin-4-yl)-5-azaspiro[2.5]octane-8-carboxamide] | 5.1 | 11.8 | 29.6 | 78.1 | 23
8 | O=C(OCC1(CO)CC1)[C@H]1CCN(c2ncnc3[nH]ccc23)CC12CC2 [Example 156, [1-(hydroxymethyl)cyclopropyl]methyl (8S)-5-(7H-pyrrolo[2,3-d]pyrimidin-4-yl)-5-azaspiro[2.5]octane-8-carboxylate] | 4 | 5.4 | 20.4 | 30 | 94
9 | C[C@H](NC(=O)[C@H]1CCN(c2ncnc3[nH]ccc23)CC12CC2)c1ccc(C#N)cn1 [Example 48, (8S)-N-[(1S)-1-(5-cyano-2-pyridyl)ethyl]-5-(7H-pyrrolo[2,3-d]pyrimidin-4-yl)-5-azaspiro[2.5]octane-8-carboxamide] | 3.2 | 10.2 | 40.3 | 128 | 48
10 | O=C(NCC1(CO)CCCC1)C1CCN(c2ncnc3[nH]ccc23)CC12CC2 (stereo not drawn) [Example 58, N-[[1-(hydroxymethyl)cyclopentyl]methyl]-5-(7H-pyrrolo[2,3-d]pyrimidin-4-yl)-5-azaspiro[2.5]octane-8-carboxamide] | 4.1 | 13 | 30.3 | 142 | 143
11 | O=C(N[C@@H](CO)c1ccccc1)C1CCN(c2ncnc3[nH]ccc23)CC12CC2 (stereo partly drawn) [Example 69, N-[(1R)-2-hydroxy-1-phenyl-ethyl]-5-(7H-pyrrolo[2,3-d]pyrimidin-4-yl)-5-azaspiro[2.5]octane-8-carboxamide] | 5.1 | 12 | 29.1 | 298 | 44
12 | Cc1ccc([C@H](O)CNC(=O)[C@H]2CCN(c3ncnc4[nH]ccc34)CC23CC3)cc1 [Example 64, (8S)-N-[(2S)-2-hydroxy-2-(p-tolyl)ethyl]-5-(7H-pyrrolo[2,3-d]pyrimidin-4-yl)-5-azaspiro[2.5]octane-8-carboxamide] | 4.5 | 6.7 | 28.5 | 90.9 | > 200
13 | O=C(N[C@@H](CO)c1ccc(F)cc1)[C@H]1CCN(c2ncnc3[nH]ccc23)CC12CC2 [Example 17, (8S)-N-[(1R)-1-(4-fluorophenyl)-2-hydroxy-ethyl]-5-(7H-pyrrolo[2,3-d]pyrimidin-4-yl)-5-azaspiro[2.5]octane-8-carboxamide] | 1 | 3 | 5.7 | 20.5 | 43
14 | O=C(NCC1CC(F)(F)C1)[C@H]1CCN(c2ncnc3[nH]ccc23)CC12CC2 [Example 62, (8S)-N-[(3,3-difluorocyclobutyl)methyl]-5-(7H-pyrrolo[2,3-d]pyrimidin-4-yl)-5-azaspiro[2.5]octane-8-carboxamide] | 4.5 | 7 | 15.7 | 47.5 | 48
15 | C[C@H](NC(=O)C1CCN(c2ncnc3[nH]ccc23)CC12CC2)c1cccc(C#N)c1 (stereo partly drawn) [Example 86, N-[(1S)-1-(3-cyanophenyl)ethyl]-5-(7H-pyrrolo[2,3-d]pyrimidin-4-yl)-5-azaspiro[2.5]octane-8-carboxamide] | 7.1 | 11.3 | 38 | 47.7 | > 200
16 | O=C(N[C@@H](CO)C1CCCCC1)[C@H]1CCN(c2ncnc3[nH]ccc23)CC12CC2 [Example 24, (8S)-N-[(1R)-1-cyclohexyl-2-hydroxy-ethyl]-5-(7H-pyrrolo[2,3-d]pyrimidin-4-yl)-5-azaspiro[2.5]octane-8-carboxamide] | 1.3 | 2.7 | 10.9 | 19.9 | 159
17 | O=C(NC[C@H](O)C1CCCCC1)[C@H]1CCN(c2ncnc3[nH]ccc23)CC12CC2 [Example 15, (8S)-N-[(2R)-2-cyclohexyl-2-hydroxy-ethyl]-5-(7H-pyrrolo[2,3-d]pyrimidin-4-yl)-5-azaspiro[2.5]octane-8-carboxamide] | 0.9 | 1.7 | 3.7 | 7.4 | > 200
18 | O=C(NCC1CC(F)(F)C1)C1CCN(c2ncnc3[nH]ccc23)CC12CC2 (stereo not drawn) [Example 56, N-[(3,3-difluorocyclobutyl)methyl]-5-(7H-pyrrolo[2,3-d]pyrimidin-4-yl)-5-azaspiro[2.5]octane-8-carboxamide] | 3.9 | 8.3 | 18.1 | 170 | 63
19 | O=C(N[C@H](CO)C(=O)OCC1CC(F)(F)C1)[C@H]1CCN(c2ncnc3[nH]ccc23)CC12CC2 [Example 42, (3,3-difluorocyclobutyl)methyl (2R)-3-hydroxy-2-[[(8S)-5-(7H-pyrrolo[2,3-d]pyrimidin-4-yl)-5-azaspiro[2.5]octane-8-carbonyl]amino]propanoate] | 2.7 | 6.7 | 20.2 | 51.3 | > 200
20 | O=C(N[C@@H](CO)[C@@H](O)c1ccc(F)cn1)[C@H]1CCN(c2ncnc3[nH]ccc23)CC12CC2 [Example 105, (8S)-N-[(1S,2R)-2-(5-fluoro-2-pyridyl)-2-hydroxy-1-(hydroxymethyl)ethyl]-5-(7H-pyrrolo[2,3-d]pyrimidin-4-yl)-5-azaspiro[2.5]octane-8-carboxamide] | 10.2 | 11.2 | 56 | 153 | 15
21 | O=C(OCC1CC(F)(F)C1)C1CCN(c2ncnc3[nH]ccc23)CC12CC2 (stereo not drawn) [Example 153, (3,3-difluorocyclobutyl)methyl 5-(7H-pyrrolo[2,3-d]pyrimidin-4-yl)-5-azaspiro[2.5]octane-8-carboxylate] | 2.3 | 3.2 | 8.9 | 68 | 160
